Laboratory results: patent publication US20240425518A1, “N-MACROCYCLIC AMIDE COMPOUNDS, PREPARATION METHODS THEREOF AND APPLICATIONS THEREOF AS MEDICAMENTS” (Chengdu FANXI Biopharma Co., Ltd., priority 2023, published 2024)

Key:
Assay type in all cases: biochemical
[1] = target: T1, BTK (h) (Homo sapiens, UniProt Q06187); assay: Radioisotope labeling kinase assay (Eurofins), BTK; details: for activity at 1 µM: 1 μM compound, read-out: Inhibitory activity per unit concentration/Activity % BTK (h)
T1 construct: purchased Eurofins
T1 sequence (Q06187 whole entry): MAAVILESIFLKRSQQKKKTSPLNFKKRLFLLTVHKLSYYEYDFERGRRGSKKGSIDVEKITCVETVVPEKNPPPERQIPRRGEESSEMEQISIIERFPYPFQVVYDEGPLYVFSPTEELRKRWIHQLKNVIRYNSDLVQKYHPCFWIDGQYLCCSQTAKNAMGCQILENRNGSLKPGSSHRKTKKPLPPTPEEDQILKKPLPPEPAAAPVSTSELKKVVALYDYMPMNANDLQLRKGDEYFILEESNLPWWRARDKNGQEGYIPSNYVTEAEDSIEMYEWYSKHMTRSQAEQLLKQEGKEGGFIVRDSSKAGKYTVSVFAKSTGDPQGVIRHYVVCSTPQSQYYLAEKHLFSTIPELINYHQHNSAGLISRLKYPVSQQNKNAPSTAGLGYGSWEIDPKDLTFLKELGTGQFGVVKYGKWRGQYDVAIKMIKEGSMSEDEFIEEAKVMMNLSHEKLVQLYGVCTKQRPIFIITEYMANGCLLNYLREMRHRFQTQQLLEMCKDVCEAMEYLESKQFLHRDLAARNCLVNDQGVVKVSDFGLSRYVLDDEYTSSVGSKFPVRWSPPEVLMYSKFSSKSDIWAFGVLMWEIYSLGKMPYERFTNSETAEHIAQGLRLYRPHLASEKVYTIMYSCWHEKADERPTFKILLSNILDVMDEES
Experimental: (§1) An activity to a human recombinant protein kinase of a series of compounds was determined by a radioisotope labeling method, which was provided by Eurofins Company. A compound to be detected was mixed with a corresponding protein kinase buffer (20 mM propyl sulfonate (MOPS, […].), 1 mM EDTA, 0.10 β-mercaptoethanol, 0.010 Brij-35, […], and 1 mg/mL BSA), the mixture was added into a reaction system (100 μM reaction substrate […], 8 mM MOPS with a pH value of 7.0, 10 mM MgAcetate, 0.2 mM EDTA, and a certain concentration of γ-^33P-ATP). After adding an MgATP composite solution, the reaction was started at room temperature for 40 minutes, and the reaction was terminated by adding 5 μl of […] solution. Then, 10 μl of reaction solution was dropwise added onto a filter and washed with 75 mM phosphoric acid solution for three times, 5 minutes each time, then washed with methanol once again, and dried and subjected to scintillation counting.

[2] = target: T2, Flt3 (h) (Homo sapiens, UniProt P36888); assay: Radioisotope labeling kinase assay (Eurofins), Flt3; details: for activity at 1 µM: 1 μM compound, read-out: Inhibitory activity per unit concentration/Activity % Flt3 (h)
T2 construct: purchased Eurofins
T2 sequence (P36888 27-993): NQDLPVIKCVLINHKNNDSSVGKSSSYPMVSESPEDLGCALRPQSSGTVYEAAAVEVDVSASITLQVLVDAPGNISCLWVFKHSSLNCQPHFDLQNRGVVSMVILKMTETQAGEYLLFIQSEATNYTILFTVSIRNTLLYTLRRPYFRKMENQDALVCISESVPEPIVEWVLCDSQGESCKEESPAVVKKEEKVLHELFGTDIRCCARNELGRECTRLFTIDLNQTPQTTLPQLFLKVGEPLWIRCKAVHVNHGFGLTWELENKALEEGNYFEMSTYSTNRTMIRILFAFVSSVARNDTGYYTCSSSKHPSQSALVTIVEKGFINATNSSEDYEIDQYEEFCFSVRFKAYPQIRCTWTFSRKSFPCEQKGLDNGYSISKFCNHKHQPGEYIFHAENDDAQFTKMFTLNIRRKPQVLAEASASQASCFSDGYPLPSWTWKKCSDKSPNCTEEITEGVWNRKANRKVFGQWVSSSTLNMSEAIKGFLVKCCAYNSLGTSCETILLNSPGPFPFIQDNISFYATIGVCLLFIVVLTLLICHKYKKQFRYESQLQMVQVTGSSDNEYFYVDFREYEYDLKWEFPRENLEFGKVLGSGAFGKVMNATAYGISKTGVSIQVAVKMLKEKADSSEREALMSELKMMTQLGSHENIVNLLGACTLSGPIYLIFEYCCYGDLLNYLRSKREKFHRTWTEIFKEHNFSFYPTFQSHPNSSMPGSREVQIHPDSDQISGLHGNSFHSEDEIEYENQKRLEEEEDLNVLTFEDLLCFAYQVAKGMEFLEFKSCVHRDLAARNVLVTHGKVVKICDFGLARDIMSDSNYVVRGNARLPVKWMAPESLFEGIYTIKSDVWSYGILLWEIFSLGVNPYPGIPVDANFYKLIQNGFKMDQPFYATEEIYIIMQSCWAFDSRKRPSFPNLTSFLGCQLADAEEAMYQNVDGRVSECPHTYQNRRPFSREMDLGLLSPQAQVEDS
Experimental: as §1

[3] = target: T3, JAK1 (h) (Homo sapiens, UniProt P23458); assay: Radioisotope labeling kinase assay (Eurofins), JAK1
T3 construct: purchased Eurofins
T3 sequence (P23458 whole entry): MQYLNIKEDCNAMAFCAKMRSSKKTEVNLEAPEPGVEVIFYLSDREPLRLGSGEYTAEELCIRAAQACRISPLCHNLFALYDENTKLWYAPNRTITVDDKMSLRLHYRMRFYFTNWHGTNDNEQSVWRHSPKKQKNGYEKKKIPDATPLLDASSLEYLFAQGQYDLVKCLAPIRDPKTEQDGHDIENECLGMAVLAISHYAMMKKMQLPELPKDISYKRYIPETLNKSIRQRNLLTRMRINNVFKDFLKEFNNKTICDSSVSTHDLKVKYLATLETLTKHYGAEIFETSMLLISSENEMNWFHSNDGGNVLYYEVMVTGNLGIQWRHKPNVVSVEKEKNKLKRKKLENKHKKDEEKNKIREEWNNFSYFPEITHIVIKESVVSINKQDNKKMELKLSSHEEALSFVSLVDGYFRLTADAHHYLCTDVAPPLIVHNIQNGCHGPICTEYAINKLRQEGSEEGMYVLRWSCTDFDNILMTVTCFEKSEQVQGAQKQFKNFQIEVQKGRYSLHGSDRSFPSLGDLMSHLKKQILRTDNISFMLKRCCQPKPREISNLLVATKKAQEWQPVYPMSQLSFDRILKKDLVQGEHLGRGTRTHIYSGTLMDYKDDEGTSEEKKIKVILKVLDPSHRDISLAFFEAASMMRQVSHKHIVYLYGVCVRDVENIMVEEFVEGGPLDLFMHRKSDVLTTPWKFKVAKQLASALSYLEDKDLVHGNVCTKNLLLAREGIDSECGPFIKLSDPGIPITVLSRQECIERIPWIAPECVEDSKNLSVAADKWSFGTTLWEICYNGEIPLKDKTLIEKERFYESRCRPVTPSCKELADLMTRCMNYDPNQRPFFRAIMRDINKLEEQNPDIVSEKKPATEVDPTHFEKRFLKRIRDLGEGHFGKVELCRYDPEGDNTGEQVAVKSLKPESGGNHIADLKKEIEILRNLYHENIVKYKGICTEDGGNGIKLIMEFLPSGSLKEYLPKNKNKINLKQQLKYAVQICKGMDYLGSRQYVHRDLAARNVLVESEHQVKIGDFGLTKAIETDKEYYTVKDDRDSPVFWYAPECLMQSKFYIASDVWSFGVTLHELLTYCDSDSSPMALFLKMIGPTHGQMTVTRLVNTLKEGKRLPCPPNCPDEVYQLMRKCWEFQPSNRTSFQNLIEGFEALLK
Experimental: as §1

[4] = target: T4, TrkA (h) (Homo sapiens, UniProt P04629); assay: Radioisotope labeling kinase assay (Eurofins), TrkA
T4 construct: purchased Eurofins
T4 sequence (P04629 33-796): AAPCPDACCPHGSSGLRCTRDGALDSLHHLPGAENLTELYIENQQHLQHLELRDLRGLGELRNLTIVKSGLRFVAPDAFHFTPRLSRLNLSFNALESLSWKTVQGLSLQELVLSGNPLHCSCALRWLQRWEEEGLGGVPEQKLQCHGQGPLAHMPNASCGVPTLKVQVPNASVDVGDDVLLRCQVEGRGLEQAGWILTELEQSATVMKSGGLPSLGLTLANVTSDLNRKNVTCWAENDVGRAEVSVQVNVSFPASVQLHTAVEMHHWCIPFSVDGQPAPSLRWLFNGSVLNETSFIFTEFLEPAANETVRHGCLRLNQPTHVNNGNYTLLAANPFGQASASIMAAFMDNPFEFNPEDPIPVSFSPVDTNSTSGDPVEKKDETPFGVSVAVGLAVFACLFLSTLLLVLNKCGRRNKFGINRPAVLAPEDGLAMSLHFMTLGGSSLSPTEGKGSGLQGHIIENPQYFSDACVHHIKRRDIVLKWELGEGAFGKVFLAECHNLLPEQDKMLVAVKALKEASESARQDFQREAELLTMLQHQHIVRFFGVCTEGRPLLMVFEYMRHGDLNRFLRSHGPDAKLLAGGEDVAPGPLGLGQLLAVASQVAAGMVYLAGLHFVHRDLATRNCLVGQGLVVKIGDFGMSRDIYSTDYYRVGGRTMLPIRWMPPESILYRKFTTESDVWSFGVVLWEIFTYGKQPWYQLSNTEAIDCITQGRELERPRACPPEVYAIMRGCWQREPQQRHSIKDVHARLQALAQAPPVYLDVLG
Experimental: as §1

[5] = target: T5, JAK2 (h) (Homo sapiens, UniProt O60674); assay: Radioisotope labeling kinase assay (Eurofins), JAK2
T5 construct: purchased Eurofins
T5 sequence (O60674 whole entry): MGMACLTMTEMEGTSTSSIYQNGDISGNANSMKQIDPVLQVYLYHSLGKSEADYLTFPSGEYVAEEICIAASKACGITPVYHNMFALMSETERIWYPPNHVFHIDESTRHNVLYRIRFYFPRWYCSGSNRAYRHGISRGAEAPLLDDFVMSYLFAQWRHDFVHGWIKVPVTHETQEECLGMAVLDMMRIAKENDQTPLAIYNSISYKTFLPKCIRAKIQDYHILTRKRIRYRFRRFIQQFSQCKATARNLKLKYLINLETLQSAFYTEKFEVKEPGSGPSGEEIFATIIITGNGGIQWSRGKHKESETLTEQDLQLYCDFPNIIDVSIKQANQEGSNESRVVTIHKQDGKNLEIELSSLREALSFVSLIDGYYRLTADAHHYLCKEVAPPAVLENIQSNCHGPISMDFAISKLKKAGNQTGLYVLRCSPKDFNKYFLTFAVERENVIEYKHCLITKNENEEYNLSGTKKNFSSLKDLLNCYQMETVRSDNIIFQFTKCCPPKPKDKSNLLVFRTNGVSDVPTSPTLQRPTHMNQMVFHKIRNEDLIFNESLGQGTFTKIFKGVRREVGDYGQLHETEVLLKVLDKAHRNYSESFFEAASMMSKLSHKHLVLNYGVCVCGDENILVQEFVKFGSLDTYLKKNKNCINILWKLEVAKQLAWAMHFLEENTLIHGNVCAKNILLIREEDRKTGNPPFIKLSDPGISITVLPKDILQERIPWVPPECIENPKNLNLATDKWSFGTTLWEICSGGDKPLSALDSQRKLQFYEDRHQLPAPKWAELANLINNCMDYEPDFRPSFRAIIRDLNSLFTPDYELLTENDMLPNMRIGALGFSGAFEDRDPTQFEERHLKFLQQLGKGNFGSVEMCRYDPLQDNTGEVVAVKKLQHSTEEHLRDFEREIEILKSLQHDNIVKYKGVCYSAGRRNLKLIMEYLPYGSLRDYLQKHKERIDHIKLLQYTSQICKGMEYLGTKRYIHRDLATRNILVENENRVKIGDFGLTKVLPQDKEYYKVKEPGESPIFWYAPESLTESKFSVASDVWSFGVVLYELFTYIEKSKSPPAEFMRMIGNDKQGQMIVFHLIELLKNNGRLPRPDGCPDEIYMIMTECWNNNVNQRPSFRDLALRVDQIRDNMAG
Experimental: as §1

[6] = target: T6, JAK3 (h) (Homo sapiens, UniProt P52333); assay: Radioisotope labeling kinase assay (Eurofins), JAK3; details: for activity at 1 µM: 1 μM compound, read-out: Inhibitory activity per unit concentration/Activity % JAK3 (h)
T6 construct: purchased Eurofins
T6 sequence (P52333 1-1124): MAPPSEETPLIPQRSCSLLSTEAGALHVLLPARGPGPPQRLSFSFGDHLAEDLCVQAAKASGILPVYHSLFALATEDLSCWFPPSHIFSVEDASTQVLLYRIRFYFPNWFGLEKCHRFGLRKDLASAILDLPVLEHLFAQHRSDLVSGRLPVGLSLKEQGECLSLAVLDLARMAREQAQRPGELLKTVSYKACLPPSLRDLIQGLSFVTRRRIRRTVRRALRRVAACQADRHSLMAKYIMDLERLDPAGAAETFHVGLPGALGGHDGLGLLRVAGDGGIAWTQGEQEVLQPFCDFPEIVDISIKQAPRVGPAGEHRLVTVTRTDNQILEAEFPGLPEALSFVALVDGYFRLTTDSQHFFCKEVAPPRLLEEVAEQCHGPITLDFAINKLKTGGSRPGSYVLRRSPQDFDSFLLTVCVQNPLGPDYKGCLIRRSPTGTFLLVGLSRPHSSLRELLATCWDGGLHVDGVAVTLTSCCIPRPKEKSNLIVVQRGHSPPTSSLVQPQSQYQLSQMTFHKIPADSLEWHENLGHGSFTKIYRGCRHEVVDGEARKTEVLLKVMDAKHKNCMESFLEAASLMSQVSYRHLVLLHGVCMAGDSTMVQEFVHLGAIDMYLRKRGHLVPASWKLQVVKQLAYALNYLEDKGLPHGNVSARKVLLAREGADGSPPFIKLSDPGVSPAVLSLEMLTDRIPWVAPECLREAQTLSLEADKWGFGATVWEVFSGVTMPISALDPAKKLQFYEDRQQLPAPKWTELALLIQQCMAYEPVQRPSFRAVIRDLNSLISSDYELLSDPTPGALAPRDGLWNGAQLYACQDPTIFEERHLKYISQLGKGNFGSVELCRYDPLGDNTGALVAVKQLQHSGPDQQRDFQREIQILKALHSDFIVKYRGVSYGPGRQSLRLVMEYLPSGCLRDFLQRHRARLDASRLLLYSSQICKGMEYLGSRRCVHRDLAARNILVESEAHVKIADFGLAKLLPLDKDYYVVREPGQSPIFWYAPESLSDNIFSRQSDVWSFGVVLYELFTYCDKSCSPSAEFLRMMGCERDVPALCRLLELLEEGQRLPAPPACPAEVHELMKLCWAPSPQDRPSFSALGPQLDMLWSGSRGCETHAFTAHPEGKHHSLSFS
Experimental: as §1

Compound	IC50 [1] [nM]	activity at 1 µM [1] [%]	IC50 [2] [nM]	activity at 1 µM [2] [%]	IC50 [3] [nM]	IC50 [4] [nM]	IC50 [5] [nM]	activity at 1 µM [6] [%]	IC50 [6] [nM]
C=CC(=O)Nc1cc2cc(c1)Nc1nccc(n1)-c1cccc(c1)COC/C=C/COC2 [XVI-6]	348	16	15	5	106	2	16	16	
O=C(O)/C=C/C(=O)Nc1cc2cc(c1)Nc1nccc(n1)-c1cccc(c1)COC/C=C/COC2 [XVI-9]		62	31	4	19	3	7	4	17
O=C(/C=C/C(=O)N1CCOCC1)Nc1cc2cc(c1)Nc1nccc(n1)-c1cccc(c1)COC/C=C/COC2 [XVI-10]		31	21	3	89	16	17	2	44
O=C(/C=C/C(=O)N1CCNCC1)Nc1cc2cc(c1)Nc1nccc(n1)-c1cccc(c1)COC/C=C/COC2 [XVI-11]		18	22	1	167	21	38	6	151
C1=C/COCc2cccc(c2)-c2ccnc(n2)Nc2cc(cc(OC/C=C/CN3CCCC3)c2)COC/1 [XVI-12]		38	15	-8	492	18	124	26	
CN(C)C/C=C/C(=O)Nc1cc2cc(c1)Nc1nccc(n1)-c1cccc(c1)COC/C=C/CN(C)C2 [XVI-26]	1250	50	21	7	136	28	328	74	

Compounds with a lower IC50 [2], results first:

IC50 [1] [nM]	activity at 1 µM [1] [%]	IC50 [2] [nM]	activity at 1 µM [2] [%]	IC50 [3] [nM]	IC50 [4] [nM]	IC50 [5] [nM]	activity at 1 µM [6] [%]	IC50 [6] [nM]	Compound
157	6	8	4	17	2	6	10		Nc1cc2cc(c1)Nc1nccc(n1)-c1cccc(c1)COC/C=C/COC2 [XIII-1]
29	2	2	1	69	1	9	9		O=C(/C=C/CN1CCCC1)Nc1cc2cc(c1)Nc1nccc(n1)-c1cccc(c1)COC/C=C/COC2 [XVI-1]
40	7	4	3	44	2	6	8		O=C(/C=C/CN1CCOCC1)Nc1cc2cc(c1)Nc1nccc(n1)-c1cccc(c1)COC/C=C/COC2 [XVI-3]
238	9	5	5	44	2	10	11		C/C=C/C(=O)Nc1cc2cc(c1)Nc1nccc(n1)-c1cccc(c1)COC/C=C/COC2 [XVI-4]
48	9	9	2	262	3	29	19		CN(C)C/C=C/C(=O)Nc1cc2cc(c1)Nc1nccc(n1)-c1cccc(c1)COC/C=C/COC2 [XVI-8]
1470	57	9	8	40	20	86	51		C/C=C/C(=O)Nc1cc2cc(c1)Nc1nccc(n1)-c1cccc(c1)COC/C=C/CN(C)C2 [XVI-28]
	8	7	4	33	2	13	16		C#CC(=O)Nc1cc2cc(c1)Nc1nccc(n1)-c1cccc(c1)COC/C=C/COC2 [XVII-1]
